Assay results as given in ChEMBL document CHEMBL1201862, “PubChem BioAssay data set” (2004).
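Where inhibition never reached the appropriate level, the endpoint shown equals the highest concentration tested. Otherwise, values were interpolated linearly from a five-concentration, 48-hour dose response in 96-well plates. Abbreviation: GI50, concentration required for 50% inhibition of growth.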 Calls of active or inactive are those of the source. Rule as the data show it: active = GI50 up to about 1.1 µM and inactive = higher.

Assays:
Assay in all cases: NCI tumour cell line growth inhibition, 48 h
COLO 205 = test system: COLO 205
CAKI-1 = test system: CAKI-1
A498 = test system: A498
OVCAR-8 = test system: OVCAR-8
U-251 = test system: U-251
NCI-H460 = test system: NCI-H460
EKVX = test system: EKVX
HOP-62 = test system: HOP-62
SNB-19 = test system: SNB-19
OVCAR-3 = test system: OVCAR-3
K562 = test system: K562
OVCAR-4 = test system: OVCAR-4
NCI-H23 = test system: NCI-H23
RXF 393 = test system: RXF 393
SK-MEL-5 = test system: SK-MEL-5
NCI-H226 = test system: NCI-H226
CCRF-CEM = test system: CCRF-CEM
ACHN = test system: ACHN
M14 = test system: M14
DU-145 = test system: DU-145

Measured: GI50

CC1C(=O)C(C)C(c2ccco2)N(N=O)C1c1ccco1 (centres undefined)
inactive: COLO 205 > 100 µM | CAKI-1 > 100 µM | A498 > 100 µM | OVCAR-8 > 100 µM | U-251 > 100 µM | NCI-H460 > 100 µM | EKVX > 100 µM | HOP-62 > 100 µM | SNB-19 > 84.1 µM | OVCAR-3 > 100 µM | K562 > 100 µM | OVCAR-4 > 100 µM | NCI-H23 > 100 µM | RXF 393 > 100 µM | SK-MEL-5 > 100 µM | NCI-H226 > 100 µM | CCRF-CEM > 100 µM

O=C1CCC(=O)C1=NNc1ccccc1
inactive: COLO 205 > 100 µM | ACHN > 100 µM | CAKI-1 > 100 µM | A498 43.6 µM | OVCAR-8 > 100 µM | U-251 > 100 µM | NCI-H460 > 100 µM | M14 > 100 µM | EKVX > 100 µM | HOP-62 > 100 µM | SNB-19 > 100 µM | OVCAR-3 > 100 µM | K562 > 100 µM | OVCAR-4 > 100 µM | NCI-H23 > 100 µM | RXF 393 > 100 µM | SK-MEL-5 80.4 µM | NCI-H226 > 100 µM | CCRF-CEM > 100 µM

COc1ccc(-c2cc(O)c3c(C)ccnc3n2)cc1
inactive: COLO 205 4.26 µM | ACHN 21.2 µM | CAKI-1 33.8 µM | A498 14.3 µM | OVCAR-8 25.9 µM | M14 10.8 µM | EKVX 30.7 µM | HOP-62 20.7 µM | SNB-19 36.8 µM | K562 3.85 µM | OVCAR-4 24.8 µM | NCI-H23 19 µM | RXF 393 19.9 µM | NCI-H226 33.5 µM | CCRF-CEM 17.8 µM | DU-145 28.8 µM

Cc1nc(O)nc(O)c1/C=C/C(=O)O
inactive: COLO 205 > 1000 µM | CAKI-1 > 1000 µM | A498 > 1000 µM | OVCAR-8 > 1000 µM | U-251 > 1000 µM | NCI-H460 > 1000 µM | EKVX > 1000 µM | HOP-62 > 1000 µM | SNB-19 > 1000 µM | OVCAR-3 > 1000 µM | K562 > 1000 µM | OVCAR-4 > 1000 µM | NCI-H23 > 1000 µM | RXF 393 > 1000 µM | SK-MEL-5 > 1000 µM | NCI-H226 > 1000 µM | CCRF-CEM > 1000 µM

CCc1c(-c2ccc(OC)cc2)oc(OC)c(C)c1=O
inactive: COLO 205 > 100 µM | ACHN 42.3 µM | CAKI-1 99.1 µM | A498 68.9 µM | OVCAR-8 > 100 µM | U-251 > 100 µM | NCI-H460 40.5 µM | M14 > 100 µM | EKVX 63.4 µM | HOP-62 > 100 µM | SNB-19 > 100 µM | OVCAR-3 62.8 µM | K562 34.2 µM | OVCAR-4 85.9 µM | NCI-H23 > 100 µM | RXF 393 > 100 µM | SK-MEL-5 32.2 µM | CCRF-CEM 41 µM | DU-145 > 100 µM

C=C1C(=O)OC2C[C@@]3(C)CCCC(=C)C3CC12 (some centres undefined)
inactive: COLO 205 2.93 µM | ACHN 14 µM | CAKI-1 6.62 µM | A498 6.89 µM | OVCAR-8 11.7 µM | U-251 10.1 µM | NCI-H460 4.68 µM | M14 6.34 µM | EKVX 17.1 µM | HOP-62 20.5 µM | SNB-19 11.2 µM | OVCAR-3 10.4 µM | OVCAR-4 13.4 µM | NCI-H23 13.7 µM | RXF 393 2.77 µM | SK-MEL-5 7.64 µM | NCI-H226 12.9 µM | CCRF-CEM > 100 µM

CC(=O)c1c(-c2ccco2)c(C#N)c(=S)n(C2OC(CO)C(O)C(O)C2O)c1-c1ccccc1 (centres undefined)
inactive: COLO 205 > 100 µM | ACHN > 100 µM | CAKI-1 > 100 µM | OVCAR-8 81.8 µM | U-251 28.4 µM | NCI-H460 > 100 µM | M14 40.5 µM | EKVX 43.1 µM | HOP-62 47.6 µM | SNB-19 22.4 µM | OVCAR-3 > 100 µM | K562 58.9 µM | OVCAR-4 73.3 µM | NCI-H23 31.8 µM | RXF 393 37 µM | SK-MEL-5 35.7 µM | CCRF-CEM 43.3 µM | DU-145 87.3 µM

CC(=O)OC1COC(N2c3ccccc3[C@@H]3CCc4c([nH]c5ccccc45)[C@@H]32)C(OC(C)=O)C1OC(C)=O.CC(=O)OC1COC(N2c3ccccc3[C@H]3CCc4c([nH]c5ccccc45)[C@H]32)C(OC(C)=O)C1OC(C)=O (some centres undefined)
inactive: COLO 205 19.2 µM | CAKI-1 27.7 µM | A498 17.7 µM | U-251 80.7 µM | NCI-H460 40.6 µM | M14 42.6 µM | EKVX 19 µM | HOP-62 > 100 µM | SNB-19 > 100 µM | OVCAR-3 26.1 µM | OVCAR-4 71.8 µM | NCI-H23 57.8 µM | SK-MEL-5 29.3 µM | CCRF-CEM 26.5 µM | DU-145 > 100 µM

CCOc1ncn(-c2ccc(NC(=S)Nc3ncccn3)cc2)n1
inactive: COLO 205 29.5 µM | OVCAR-8 24.8 µM | U-251 > 100 µM | NCI-H460 41.4 µM | M14 31.5 µM | EKVX 64 µM | HOP-62 > 100 µM | SNB-19 54 µM | OVCAR-3 37.7 µM | K562 25.8 µM | OVCAR-4 21.8 µM | NCI-H23 81.5 µM | SK-MEL-5 18.2 µM | CCRF-CEM 20 µM | DU-145 66.8 µM

O=C(CCN1CCOCC1)/C(=C/c1ccccc1)c1ccccc1
inactive: COLO 205 3.89 µM | CAKI-1 5.14 µM | A498 10.1 µM | OVCAR-8 1.95 µM | U-251 3.99 µM | NCI-H460 8.95 µM | EKVX 8.18 µM | HOP-62 26.1 µM | SNB-19 11 µM | OVCAR-3 3.76 µM | K562 1.89 µM | OVCAR-4 10.3 µM | NCI-H23 4.15 µM | RXF 393 1.57 µM | SK-MEL-5 8.45 µM | NCI-H226 7.55 µM | CCRF-CEM 1.98 µM

CCP(=O)(CC)C(Cl)(Cl)C(O)C(Cl)(Cl)Cl (centres undefined)
inactive: COLO 205 > 100 µM | ACHN > 100 µM | CAKI-1 > 100 µM | OVCAR-8 > 100 µM | U-251 > 100 µM | NCI-H460 > 100 µM | M14 > 100 µM | HOP-62 > 100 µM | SNB-19 > 100 µM | OVCAR-3 > 100 µM | K562 > 100 µM | OVCAR-4 > 100 µM | NCI-H23 > 100 µM | SK-MEL-5 > 100 µM | NCI-H226 > 100 µM | CCRF-CEM > 100 µM | DU-145 > 100 µM

CCN1c2ccccc2-n2c(C)nnc2-c2c(-c3ccccc3)n[nH]c21
inactive: COLO 205 32.4 µM | ACHN 14.3 µM | CAKI-1 > 10 µM | OVCAR-8 24.7 µM | U-251 18.5 µM | NCI-H460 27.8 µM | M14 26.4 µM | EKVX 49.7 µM | SNB-19 42.9 µM | OVCAR-3 36.4 µM | K562 4.83 µM | OVCAR-4 22 µM | NCI-H23 35.5 µM | RXF 393 44.5 µM | SK-MEL-5 14.5 µM | CCRF-CEM 17.5 µM | DU-145 36.1 µM

CCOC(=O)Cc1cc(OC)c(OC)cc1/C(Cl)=C(\C=O)c1ccc(OC)c(OC)c1
inactive: COLO 205 21.8 µM | ACHN 20.6 µM | CAKI-1 29.4 µM | OVCAR-8 25.5 µM | U-251 17.5 µM | NCI-H460 3.4 µM | M14 16.1 µM | EKVX 22.1 µM | HOP-62 9.35 µM | SNB-19 34.4 µM | OVCAR-3 13.8 µM | K562 17.2 µM | OVCAR-4 18.5 µM | NCI-H23 19.6 µM | RXF 393 57.8 µM | SK-MEL-5 17.1 µM | CCRF-CEM > 10 µM

O=C(N/C(=C\c1ccccc1[N+](=O)[O-])c1nc2ccccc2[nH]1)c1ccccc1
inactive: COLO 205 > 100 µM | CAKI-1 > 100 µM | OVCAR-8 71.3 µM | U-251 > 100 µM | M14 > 100 µM | SNB-19 > 100 µM | OVCAR-3 68.1 µM | K562 43.9 µM | OVCAR-4 > 100 µM | NCI-H23 > 100 µM | RXF 393 56.1 µM | SK-MEL-5 72.8 µM | CCRF-CEM 57.9 µM

Cc1c(C)c2ccc(OCC(O)COC(C)C)c(C)c2oc1=O (centres undefined)
inactive: COLO 205 > 10 µM | ACHN 44.3 µM | CAKI-1 41.7 µM | OVCAR-8 28.2 µM | U-251 16.2 µM | NCI-H460 16.7 µM | M14 20.8 µM | EKVX 45.5 µM | HOP-62 28.7 µM | SNB-19 57.5 µM | OVCAR-3 > 100 µM | K562 25.4 µM | OVCAR-4 > 10 µM | NCI-H23 91.6 µM | SK-MEL-5 16.4 µM | CCRF-CEM 27.5 µM | DU-145 > 100 µM

Cc1cc(NC(=S)Nc2ccccc2)c(NC(=S)Nc2ccccc2)cc1C
inactive: COLO 205 26.1 µM | CAKI-1 9.91 µM | A498 36.1 µM | OVCAR-8 40.1 µM | U-251 15.7 µM | NCI-H460 12.9 µM | EKVX 39.3 µM | HOP-62 15.5 µM | SNB-19 47.9 µM | OVCAR-3 21.1 µM | K562 9.44 µM | OVCAR-4 32.3 µM | NCI-H23 37.2 µM | RXF 393 > 46.8 µM | SK-MEL-5 11.4 µM | NCI-H226 47.6 µM | CCRF-CEM 13.5 µM
